26 compounds from patent publication US8138168B1 (Takeda Pharmaceutical Company Limited, priority 2007, dated 2012) can be followed below.

This experiment has as its target T1, Recombinant human renin (Homo sapiens, UniProt P00797).
T1 construct: isolate the active form (residues 67-406); made in house; host or cells: FreeStyle 293-F cells (transient expression of pcDNA3.1(+)/hREN)
T1 sequence (P00797 67-406): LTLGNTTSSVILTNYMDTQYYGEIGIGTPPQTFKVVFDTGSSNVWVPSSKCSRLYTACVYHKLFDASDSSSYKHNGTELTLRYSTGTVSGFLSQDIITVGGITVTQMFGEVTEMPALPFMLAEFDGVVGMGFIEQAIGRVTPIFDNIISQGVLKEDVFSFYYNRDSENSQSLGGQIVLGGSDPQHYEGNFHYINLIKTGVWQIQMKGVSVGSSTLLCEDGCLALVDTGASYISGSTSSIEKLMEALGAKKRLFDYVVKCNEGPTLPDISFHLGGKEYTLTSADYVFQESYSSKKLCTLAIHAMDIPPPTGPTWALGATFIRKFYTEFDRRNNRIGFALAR
Description: In vitro enzymatic activity assay of renin inhibitors (fluorogenic peptide substrate). In kind it is biochemical. The settings on record: read-out: IC50 of Exemplified Compounds Against Renin. The gist of the method:
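Recombinant human renin (3 nM final) pre-incubated 10 min at 37 °C with compounds in pH 7.4 Hepes/EDTA/DTT/0.1 mg/mL BSA/Brij35 buffer (optionally plus 2% BSA), 5% DMSO final; fluorogenic QXL520/HiLyteFluo488 peptide substrate added.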
With `COCCCn1c([C@@H]2CCCN(C(=O)C[C@H](N)CNC(=O)c3ccc(-c4cc(Cl)ccc4Cl)o3)C2)nc2ccccc21` [Compound 276, N-((S)-2-amino-4-((R)-3-(1-(3-methoxypropyl)-1H-benzo[d]imidazol-2-yl)piperidin-1-yl)-4-oxobutyl)-5-(2,5-dichlorophenyl)furan-2-carboxamide], the 50% inhibitory concentration (IC50) was 100 to 1000 nM. For the compound `COCCCn1c([C@@H]2CCCN(C(=O)C[C@H](N)CNC(=O)c3ccc(-c4cccc(Cl)c4Cl)o3)C2)nc2ccccc21` [Compound 277, N-((S)-2-amino-4-((R)-3-(1-(3-methoxypropyl)-1H-benzo[d]imidazol-2-yl)piperidin-1-yl)-4-oxobutyl)-5-(2,3-dichlorophenyl)furan-2-carboxamide], the concentration for half-maximal inhibition (IC50) was in the range of 100 to 1000 nM.

With `COCCCn1c([C@@H]2CCCN(C(=O)C[C@H](N)CNC(=O)c3ccc(Oc4ccccc4)cc3)C2)nc2ccccc21` [Compound 278, N-((S)-2-amino-4-((R)-3-(1-(3-methoxypropyl)-1H-benzo[d]imidazol-2-yl)piperidin-1-yl)-4-oxobutyl)-4-phenoxybenzamide], the half-maximal inhibitory concentration (IC50) is 100 to 1000 nM. Consider `COCCCn1c([C@@H]2CCCN(C(=O)C[C@H](N)CNC(=O)Nc3ccc(OC)cc3OC)C2)nc2ccccc21` [Compound 279, 1-((S)-2-amino-4-((R)-3-(1-(3-methoxypropyl)-1H-benzo[d]imidazol-2-yl)piperidin-1-yl)-4-oxobutyl)-3-(2,4-dimethoxyphenyl)urea], for which the IC50 was 100 to 1000 nM.

For `COCCCn1c([C@@H]2CCCN(C(=O)C[C@H](N)CNC(=O)c3ccc(OC)cc3)C2)nc2ccccc21` [Compound 280, N-((S)-2-amino-4-((R)-3-(1-(3-methoxypropyl)-1H-benzo[d]imidazol-2-yl)piperidin-1-yl)-4-oxobutyl)-4-methoxybenzamide], the IC50 lay within 100 to 1000 nM.

In the case of `COCCCn1c([C@@H]2CCCN(C(=O)C[C@H](N)CNS(=O)(=O)c3ccc(Cl)cc3)C2)nc2ccccc21` [Compound 281, N-((S)-2-amino-4-((R)-3-(1-(3-methoxypropyl)-1H-benzo[d]imidazol-2-yl)piperidin-1-yl)-4-oxobutyl)-4-chlorobenzenesulfonamide], the 50% inhibitory concentration (IC50) was 100 to 1000 nM. Then `COCCCn1c([C@@H]2CCCN(C(=O)C[C@H](N)CNC(=O)c3cccc(C(=O)OC)c3)C2)nc2ccccc21` [Compound 282, methyl 3-((S)-2-amino-4-((R)-3-(1-(3-methoxypropyl)-1H-benzo[d]imidazol-2-yl)piperidin-1-yl)-4-oxobutylcarbamoyl)benzoate], with 100 to 1000 nM.

Turning to `COCCCn1c([C@@H]2CCCN(C(=O)C[C@H](N)CNC(=O)Nc3ccc(Cl)cc3)C2)nc2ccccc21` [Compound 283, 1-((S)-2-amino-4-((R)-3-(1-(3-methoxypropyl)-1H-benzo[d]imidazol-2-yl)piperidin-1-yl)-4-oxobutyl)-3-(4-chlorophenyl)urea], the IC50 was in the range of 100 to 1000 nM. On to `COCCCn1c([C@@H]2CCCN(C(=O)C[C@H](N)CNC(=O)Nc3ccccc3SC)C2)nc2ccccc21` [Compound 284, 1-((S)-2-amino-4-((R)-3-(1-(3-methoxypropyl)-1H-benzo[d]imidazol-2-yl)piperidin-1-yl)-4-oxobutyl)-3-(2-(methylthio)phenyl)urea], for which the IC50 lay in the range of 100 to 1000 nM. As for `CCOc1ccccc1NC(=O)NC[C@@H](N)CC(=O)N1CCC[C@@H](c2nc3ccccc3n2CCCOC)C1` [Compound 285, 1-((S)-2-amino-4-((R)-3-(1-(3-methoxypropyl)-1H-benzo[d]imidazol-2-yl)piperidin-1-yl)-4-oxobutyl)-3-(2-ethoxyphenyl)urea], the figure is 100 to 1000 nM. Then `CCCc1ccccc1NC(=O)NC[C@@H](N)CC(=O)N1CCC[C@@H](c2nc3ccccc3n2CCCOC)C1` [Compound 286, 1-((S)-2-amino-4-((R)-3-(1-(3-methoxypropyl)-1H-benzo[d]imidazol-2-yl)piperidin-1-yl)-4-oxobutyl)-3-(2-propylphenyl)urea], with 100 to 1000 nM; and `COCCCn1c([C@@H]2CCCN(C(=O)C[C@H](N)CNC(=O)Nc3cc(C)ccc3OC)C2)nc2ccccc21` [Compound 287, 1-((S)-2-amino-4-((R)-3-(1-(3-methoxypropyl)-1H-benzo[d]imidazol-2-yl)piperidin-1-yl)-4-oxobutyl)-3-(2-methoxy-5-methylphenyl)urea], with 100 to 1000 nM. As for `COCCCn1c([C@@H]2CCCN(C(=O)C[C@H](N)CNC(=O)Nc3cccc(Oc4ccccc4)c3)C2)nc2ccccc21` [Compound 288, 1-((S)-2-amino-4-((R)-3-(1-(3-methoxypropyl)-1H-benzo[d]imidazol-2-yl)piperidin-1-yl)-4-oxobutyl)-3-(3-phenoxyphenyl)urea], the figure is 100 to 1000 nM.

On to `COCCCn1c([C@@H]2CCCN(C(=O)C[C@H](N)CNC(=O)c3c(Cl)cccc3Cl)C2)nc2ccccc21` [Compound 289, N-((S)-2-amino-4-((R)-3-(1-(3-methoxypropyl)-1H-benzo[d]imidazol-2-yl)piperidin-1-yl)-4-oxobutyl)-2,6-dichlorobenzamide], for which the IC50 lay in the range of 100 to 1000 nM.

Turning to `COCCCn1c([C@@H]2CCCN(C(=O)C[C@H](N)CNS(=O)(=O)c3c(Cl)cccc3Cl)C2)nc2ccccc21` [Compound 290, N-((S)-2-amino-4-((R)-3-(1-(3-methoxypropyl)-1H-benzo[d]imidazol-2-yl)piperidin-1-yl)-4-oxobutyl)-2,6-dichlorobenzenesulfonamide], the IC50 is 100 to 1000 nM. Then `COCCCn1c([C@@H]2CCCN(C(=O)C[C@H](N)CNC(=O)Nc3ccccc3-c3ccccc3)C2)nc2ccccc21` [Compound 291, 1-((S)-2-amino-4-((R)-3-(1-(3-methoxypropyl)-1H-benzo[d]imidazol-2-yl)piperidin-1-yl)-4-oxobutyl)-3-(biphenyl-2-yl)urea], with 100 to 1000 nM; and `COCCCn1c([C@@H]2CCCN(C(=O)C[C@H](N)CNC(=O)Nc3ccc(OC)cc3C)C2)nc2ccccc21` [Compound 292, 1-((S)-2-amino-4-((R)-3-(1-(3-methoxypropyl)-1H-benzo[d]imidazol-2-yl)piperidin-1-yl)-4-oxobutyl)-3-(4-methoxy-2-methylphenyl)urea], with 100 to 1000 nM. For `COCCCn1c([C@@H]2CCCN(C(=O)C[C@H](N)CNC(=O)c3ccc(C)c(C)c3)C2)nc2ccccc21` [Compound 293, N-((S)-2-amino-4-((R)-3-(1-(3-methoxypropyl)-1H-benzo[d]imidazol-2-yl)piperidin-1-yl)-4-oxobutyl)-3,4-dimethylbenzamide], the IC50 lay in the range of 100 to 1000 nM. As for `CCOC(=O)c1ccc(-c2ccc(C(=O)NC[C@@H](N)CC(=O)N3CCC[C@@H](c4nc5ccccc5n4CCCOC)C3)o2)cc1` [Compound 294, ethyl 4-(5-((S)-2-amino-4-((R)-3-(1-(3-methoxypropyl)-1H-benzo[d]imidazol-2-yl)piperidin-1-yl)-4-oxobutylcarbamoyl)furan-2-yl)benzoate], the IC50 was 100 to 1000 nM. In the case of `COCCCn1c([C@@H]2CCCN(C(=O)C[C@H](N)CNC(=O)c3ccc(-c4cc(Cl)cc(Cl)c4)o3)C2)nc2ccccc21` [Compound 295, N-((S)-2-amino-4-((R)-3-(1-(3-methoxypropyl)-1H-benzo[d]imidazol-2-yl)piperidin-1-yl)-4-oxobutyl)-5-(3,5-dichlorophenyl)furan-2-carboxamide], the IC50 is 100 to 1000 nM. As for `COCCCn1c([C@@H]2CCCN(C(=O)C[C@H](N)CNC(=O)c3ccc(-c4cccc(Cl)c4)o3)C2)nc2ccccc21` [Compound 296, N-((S)-2-amino-4-((R)-3-(1-(3-methoxypropyl)-1H-benzo[d]imidazol-2-yl)piperidin-1-yl)-4-oxobutyl)-5-(3-chlorophenyl)furan-2-carboxamide], the figure is 100 to 1000 nM. For the compound `COCCCn1c([C@@H]2CCCN(C(=O)C[C@H](N)CNC(=O)c3ccc(-c4cccc([N+](=O)[O-])c4)o3)C2)nc2ccccc21` [Compound 297, N-((S)-2-amino-4-((R)-3-(1-(3-methoxypropyl)-1H-benzo[d]imidazol-2-yl)piperidin-1-yl)-4-oxobutyl)-5-(3-nitrophenyl)furan-2-carboxamide], the IC50 lay in the range of 100 to 1000 nM. Then `COCCCn1c([C@@H]2CCCN(C(=O)C[C@H](N)CNC(=O)c3cccc(Cl)c3)C2)nc2ccccc21` [Compound 298, N-((S)-2-amino-4-((R)-3-(1-(3-methoxypropyl)-1H-benzo[d]imidazol-2-yl)piperidin-1-yl)-4-oxobutyl)-3-chlorobenzamide], with 100 to 1000 nM. Take `COCCCn1c([C@@H]2CCCN(C(=O)C[C@H](N)CNC(=O)c3cccnc3Oc3ccccc3)C2)nc2ccccc21` [Compound 299, N-((S)-2-amino-4-((R)-3-(1-(3-methoxypropyl)-1H-benzo[d]imidazol-2-yl)piperidin-1-yl)-4-oxobutyl)-2-phenoxynicotinamide]: the IC50 lay in the range of 100 to 1000 nM. As to `COCCCn1c([C@@H]2CCCN(C(=O)C[C@H](N)CNS(=O)(=O)c3cccc(Cl)c3)C2)nc2ccccc21` [Compound 300, N-((S)-2-amino-4-((R)-3-(1-(3-methoxypropyl)-1H-benzo[d]imidazol-2-yl)piperidin-1-yl)-4-oxobutyl)-3-chlorobenzenesulfonamide], the IC50 was in the range of 100 to 1000 nM. As for `COCCCn1c([C@@H]2CCCN(C(=O)C[C@H](N)CNC(=O)Nc3ccccc3C(C)C)C2)nc2ccccc21` [Compound 301, 1-((S)-2-amino-4-((R)-3-(1-(3-methoxypropyl)-1H-benzo[d]imidazol-2-yl)piperidin-1-yl)-4-oxobutyl)-3-(2-isopropylphenyl)urea], the figure is 100 to 1000 nM.

In general, IC50 refers to the concentration needed to halve the response being measured.
